Measured values: PMC4986685 (Drug Design, Development and Therapy, 2016)

Tests used:
Safety assessment = assay type: in vivo, human; details: 36 healthy male subjects, 7-day treatments
[1] = cited from earlier work
[2] = test system: active GLP-1, glucose, glucagon, insulin, and C-peptide; test: Oral glucose tolerance test; assay type: in vivo, human; details: significantly smaller than baseline
[3] = cited from earlier work; remark: listed apart in the source
HbA1c = details: 5 mg dose daily for 12 weeks, patients with type 2 DM with inadequate glycemic control with diet and exercise alone; cited from earlier work

Row | SMILES | Number of subjects with AEs possibly related to the study drug(s) (Safety assessment) [subjects] | Fraction eliminated by renal excretion [1] | AUC of glucose during OGTT relative to baseline [2] | Number of AEs possibly related to the study drug(s) (Safety assessment; all AEs mild) [AEs] | Half-life ([3]; after a single administration, doses between 1.25 and 60 mg, first-in-human study) [h] | Dose dependence of pharmacokinetics ([3]; doses between 1.25 and 60 mg, single administration) | Tolerability ([3]; first-in-human study, single administration) | Reduction of mean HbA1c (HbA1c) [% point]
1 | CN(C)C(=N)N=C(N)N [Metformin, reference compound] | 24 | ~ 90 % of absorbed metformin |  |  |  |  |  | 
2 | CC(C)(C)OC[C@@H]1C(=O)NCCN1C(=O)C[C@H](N)Cc1cc(F)c(F)cc1F [Evogliptin] |  |  | ~ 0.87 fold | 14 | ≥ 30 | dose proportional pharmacokinetics | well tolerated | 0.66
